Data reported in ChEMBL document CHEMBL3046383, “Enantioselective Herbicidal Activity of Chiral α-Methylbenzylphenylureas against Cyperaceae and Echinochloa Paddy Weeds” (Biosci Biotechnol Biochem, 1998).
The source made the active and inactive calls. No rule for the calls is given here.

Tests used:
[1] = tested on: Cyperus serotinus; experiment: Herbicidal activity against Cyperus serotinus assessed as phytotoxic activity ratings (0- no effect to 5-complete killing rating scale) at 100 g/a measured after 3 weeks post compound treatment under green house conditions; type: functional
[2] = tested on: Schoenoplectiella juncoides; experiment: Herbicidal activity against Schoenoplectiella juncoides var. Hotarui Ohwi assessed as phytotoxic activity ratings (0- no effect to 5-complete killing rating scale) at 100 g/a measured after 3 weeks post compound treatment under green house conditions; type: functional
[3] = tested on: Cyperus difformis; experiment: Herbicidal activity against Cyperus difformis assessed as phytotoxic activity ratings (0- no effect to 5-complete killing rating scale) at 12.2 g/a measured after 3 weeks post compound treatment under green house conditions; type: functional
[4] = tested on: Echinochloa oryzicola; experiment: Herbicidal activity against Echinochloa oryzicola assessed as phytotoxic activity ratings (0- no effect to 5-complete killing rating scale) at 100 g/a measured after 3 weeks post compound treatment under green house conditions; type: functional
[5] = tested on: Oryza sativa; experiment: Phytotoxicity against directly seeded Oryza sativa (rice) seedlings assessed as phytotoxic activity ratings (0- no effect to 5-complete killing rating scale) at 100 g/a measured after 3 weeks post compound treatment under green house conditions; type: organism-based; settings: in vivo, 504 h
[6] = tested on: Oryza sativa; experiment: Phytotoxicity against transplanted Oryza sativa (rice) seedlings assessed as phytotoxic activity ratings (0- no effect to 5-complete killing rating scale) at 100 g/a measured after 3 weeks post compound treatment under green house conditions; type: organism-based; settings: in vivo, 504 h
[7] = tested on: Cyperus serotinus; experiment: Herbicidal activity against Cyperus serotinus assessed as phytotoxic activity ratings (0- no effect to 5-complete killing rating scale) at 3.1 to 100 g/a measured after 3 weeks post compound treatment under green house conditions; type: functional
[8] = tested on: Cyperus difformis; experiment: Herbicidal activity against Cyperus difformis assessed as phytotoxic activity ratings (0- no effect to 5-complete killing rating scale) at 50 g/a measured after 3 weeks post compound treatment under green house conditions; type: functional
[9] = tested on: Cyperus serotinus; experiment: Herbicidal activity against Cyperus serotinus assessed as phytotoxic activity ratings (0- no effect to 5-complete killing rating scale) at 3.1 g/a measured after 3 weeks post compound treatment under green house conditions; type: functional
[10] = tested on: Schoenoplectiella juncoides; experiment: Herbicidal activity against Schoenoplectiella juncoides var. Hotarui Ohwi assessed as phytotoxic activity ratings (0- no effect to 5-complete killing rating scale) at 6.2 g/a measured after 3 weeks post compound treatment under green house conditions; type: functional
[11] = tested on: Cyperus difformis; experiment: Herbicidal activity against Cyperus difformis assessed as phytotoxic activity ratings (0- no effect to 5-complete killing rating scale) at 6.2 g/a measured after 3 weeks post compound treatment under green house conditions; type: functional
[12] = tested on: Echinochloa oryzicola; experiment: Herbicidal activity against Echinochloa oryzicola assessed as phytotoxic activity ratings (0- no effect to 5-complete killing rating scale) at 6.2 g/a measured after 3 weeks post compound treatment under green house conditions; type: functional
[13] = tested on: Oryza sativa; experiment: Phytotoxicity against directly seeded Oryza sativa (rice) seedlings assessed as phytotoxic activity ratings (0- no effect to 5-complete killing rating scale) at 12.2 g/a measured after 3 weeks post compound treatment under green house conditions; type: organism-based; settings: in vivo, 504 h
[14] = tested on: Cyperus difformis; experiment: Herbicidal activity against Cyperus difformis assessed as phytotoxic activity ratings (0- no effect to 5-complete killing rating scale) at 100 g/a measured after 3 weeks post compound treatment under green house conditions; type: functional
[15] = tested on: Schoenoplectiella juncoides; experiment: Herbicidal activity against Schoenoplectiella juncoides var. Hotarui Ohwi assessed as phytotoxic activity ratings (0- no effect to 5-complete killing rating scale) at 50 g/a measured after 3 weeks post compound treatment under green house conditions; type: functional
[16] = tested on: Cyperus serotinus; experiment: Herbicidal activity against Cyperus serotinus assessed as phytotoxic activity ratings (0- no effect to 5-complete killing rating scale) at 12.2 g/a measured after 3 weeks post compound treatment under green house conditions; type: functional
[17] = tested on: Cyperus difformis; experiment: Herbicidal activity against Cyperus difformis assessed as phytotoxic activity ratings (0- no effect to 5-complete killing rating scale) at 25 g/a measured after 3 weeks post compound treatment under green house conditions; type: functional
[18] = tested on: Echinochloa oryzicola; experiment: Herbicidal activity against Echinochloa oryzicola assessed as phytotoxic activity ratings (0- no effect to 5-complete killing rating scale) at 25 g/a measured after 3 weeks post compound treatment under green house conditions; type: functional
[19] = tested on: Cyperus serotinus; experiment: Herbicidal activity against Cyperus serotinus assessed as phytotoxic activity ratings (0- no effect to 5-complete killing rating scale) at 50 g/a measured after 3 weeks post compound treatment under green house conditions; type: functional
[20] = tested on: Oryza sativa; experiment: Phytotoxicity against directly seeded Oryza sativa (rice) seedlings assessed as phytotoxic activity ratings (0- no effect to 5-complete killing rating scale) at 6.2 g/a measured after 3 weeks post compound treatment under green house conditions; type: organism-based; settings: in vivo, 504 h
[21] = tested on: Schoenoplectiella juncoides; experiment: Herbicidal activity against Schoenoplectiella juncoides var. Hotarui Ohwi assessed as phytotoxic activity ratings (0- no effect to 5-complete killing rating scale) at 3.1 g/a measured after 3 weeks post compound treatment under green house conditions; type: functional
[22] = tested on: Echinochloa oryzicola; experiment: Herbicidal activity against Echinochloa oryzicola assessed as phytotoxic activity ratings (0- no effect to 5-complete killing rating scale) at 50 g/a measured after 3 weeks post compound treatment under green house conditions; type: functional
[23] = tested on: Schoenoplectiella juncoides; experiment: Herbicidal activity against Schoenoplectiella juncoides var. Hotarui Ohwi assessed as phytotoxic activity ratings (0- no effect to 5-complete killing rating scale) at 12.2 g/a measured after 3 weeks post compound treatment under green house conditions; type: functional

| Structure (SMILES) | Activity [1] | Activity [2] | Activity [4] | Activity [5] | Activity [6] | Activity [14] | also measured |
| --- | --- | --- | --- | --- | --- | --- | --- |
| CCc1cccc(NC(=O)N[C@H](C)c2ccccc2)c1 | 40% | 40% | 40% | 0% | 0% | – | Activity [3]: 80% |
| CC(C)c1cccc(NC(=O)N[C@@H](C)c2ccccc2)c1 | 10% | – | 0% | 0% | 0% | – | Activity [7]: 80%; Activity [8]: 80% |
| CC(C)c1ccccc1NC(=O)N[C@H](C)c1ccccc1 | – | – | – | – | 0% | – | Activity [9]: 80%; Activity [10]: 80%; Activity [11]: 80%; Activity [12]: 80%; Activity [13]: 80% |
| C[C@H](NC(=O)Nc1ccccc1F)c1ccccc1 | 0% | 0% | – | 40% | 0% | 10% | Activity [12]: 80% |
| C[C@@H](NC(=O)Nc1ccccc1F)c1ccccc1 | 40% | 10% | 10% | 10% | 0% | 40% | – |
| C[C@@H](NC(=O)Nc1cccc(C(F)(F)F)c1)c1ccccc1 | 0% | – | 10% | 10% | 0% | 40% | Activity [15]: 80% |
| Cc1cc(F)ccc1NC(=O)N[C@H](C)c1ccccc1 | 0% | 0% | 0% | 0% | 0% | 0% | – |
| CC(C)c1cccc(NC(=O)N[C@H](C)c2ccccc2)c1 | – | 40% | 0% | 0% | 0% | – | Activity [16]: 80%; Activity [17]: 80% |
| Cc1ccc(NC(=O)N[C@@H](C)c2ccccc2)cc1 | 0% | 0% | 40% | 0% | 0% | 0% | – |
| CCc1ccccc1NC(=O)N[C@H](C)c1ccccc1 | – | 10% | 0% | 0% | 0% | – | Activity [9]: 80%; Activity [17]: 80% |
| C[C@H](NC(=O)Nc1cc(F)ccc1F)c1ccccc1 | – | 0% | – | 10% | 0% | 0% | Activity [7]: inactive; Activity [18]: 80% |
| C[C@H](NC(=O)Nc1ccccc1C(C)(C)C)c1ccccc1 | 0% | 10% | 0% | 0% | 0% | 40% | – |
| Cc1ccccc1NC(=O)N[C@H](C)c1ccccc1 | – | – | 0% | 0% | 0% | 10% | Activity [19]: 80% |
| Cc1cc(F)ccc1NC(=O)N[C@@H](C)c1ccccc1 | 40% | 40% | 0% | 0% | 0% | 10% | – |
| CCc1ccc(NC(=O)N[C@@H](C)c2ccccc2)cc1 | 0% | 0% | 0% | 0% | 0% | 0% | – |
| C[C@H](NC(=O)Nc1ccccc1C(F)(F)F)c1ccccc1 | 0% | 0% | 10% | 0% | 0% | 0% | – |
| CC(C)c1ccc(NC(=O)N[C@@H](C)c2ccccc2)cc1 | 0% | 0% | 0% | 0% | 0% | 0% | Activity [7]: inactive |
| Cc1ccc(NC(=O)N[C@H](C)c2ccccc2)cc1 | 40% | – | 10% | 0% | 0% | – | Activity [15]: 80%; Activity [17]: 80% |
| Cc1cccc(NC(=O)N[C@@H](C)c2ccccc2)c1 | 0% | 0% | 10% | 10% | 0% | 0% | – |
| COc1cccc(NC(=O)N[C@H](C)c2ccccc2)c1 | 10% | – | 10% | 10% | 0% | 40% | Activity [7]: 80%; Activity [15]: 80% |
| C[C@H](NC(=O)Nc1cccc(F)c1F)c1ccccc1 | – | 0% | – | 10% | 0% | 0% | Activity [7]: inactive; Activity [18]: 80% |
| C[C@@H](NC(=O)Nc1ccccc1C(C)(C)C)c1ccccc1 | – | – | – | – | 0% | – | Activity [9]: 80%; Activity [10]: 80%; Activity [11]: 80%; Activity [12]: 80%; Activity [20]: 80% |
| CC(C)c1ccccc1NC(=O)N[C@@H](C)c1ccccc1 | 0% | 0% | 0% | 0% | 0% | 0% | – |
| Cc1cccc(NC(=O)N[C@H](C)c2ccccc2)c1 | 80% | 80% | 40% | 10% | 0% | 80% | – |
| CCCc1ccc(NC(=O)N[C@H](C)c2ccccc2)cc1 | 0% | 40% | – | 10% | 0% | 40% | Activity [12]: 80% |
| C[C@H](NC(=O)Nc1ccccc1)c1ccccc1 | 0% | 0% | – | 10% | 0% | 0% | Activity [18]: 80% |
| CCc1ccc(NC(=O)N[C@H](C)c2ccccc2)cc1 | 40% | 40% | 0% | 0% | 0% | 40% | – |
| Cc1ccc(NC(=O)NC(C)(C)c2ccccc2)cc1 [DAIMURON] | – | – | – | 10% | 0% | – | Activity [21]: 80%; Activity [11]: 80%; Activity [22]: 80% |
| C[C@@H](NC(=O)Nc1ccccc1C(F)(F)F)c1ccccc1 | – | – | 40% | 10% | 0% | – | Activity [9]: 80%; Activity [23]: 80%; Activity [3]: 80% |
| CCc1ccccc1NC(=O)N[C@@H](C)c1ccccc1 | 0% | 10% | 0% | 0% | 0% | 40% | – |
